In general, pEC50 refers to the EC50 on a negative log10 scale, so that one unit is a factor of ten. Low readings indicate a large EC50, high ones a small EC50.

Assay [1] addresses human Farnesoid X receptor ligand-binding domain/Gal4 DNA binding domain chimera (Homo sapiens (Human), UniProt Q96RI1). Kind of assay: Cell-based assay of FXR activation (FXR-UAS-bla HEK 293T beta-lactamase reporter). Particulars: cellular FXR beta-lactamase reporter assay; for Emax: HEK-293T, extent of activation relative to GW4064, read-out: % Efficacy; for EC50: FXR-UAS-bla HEK 293T cells, 16 h, pEC50 = -log EC50. Here is the method: FXR activation was measured using a cell line and procedure obtained from Life Technologies (Cat # K1691). FXR-UAS-bla HEK 293T cells contain a human Farnesoid X receptor ligand-binding domain/Gal4 DNA binding domain chimera stably integrated into the CellSensor® UAS-bla HEK 293T cell line. The CellSensor® UAS-bla HEK 293T contains a beta-lactamase reporter gene under control of a UAS response element stably integrated into HEK 293T cells. Activation of FXR by bound ligands results in transcriptional activation of the beta-lactamase reporter gene, which is detected via assay of beta-lactamase activity.
Cells are harvested and diluted into assay medium containing phenol red-free DMEM supplemented with 2% Charcoal-stripped FBS, pyruvate, non-essential amino acids. Cells are then transferred to a 384 well assay plate. Test compounds are dissolved in DMSO and a 3-fold serial dilution series is generated, then further diluted into assay medium. Compounds in assay medium are added to cells in the 384 well plate and allowed to incubate 16 h at 37 C in the presence of 5% CO2.
A FRET-based […] is loaded into cells as its acetomethoxy ester. Intracellular esterases liberate free CCF4, a cephalosporin core linking 7-hydroxycoumarin to fluorescein. In the presence of beta-lactamase activity produced in the presence of FXR agonists, cleavage of CCF4 spatially separates the two dyes and disrupts FRET, so that exciting the coumarin at 409 nm now produces a blue fluorescence signal at 447 nm. The change in FRET signal is plotted against the test compound concentration and fit to a 3-parameter logistical equation. The concentration required to produce 50% activation is expressed as pEC50 (−log EC50), and the extent of activation is expressed relative to GW4064 as % activation.
(Reporter assays use an easily measured gene product as a stand-in for the process of interest.)

The target in assay [2] is ligand binding domain of human FXR (Homo sapiens (Human), UniProt Q96RI1). In words: FXR ligand binding assay (LanthaScreen TR-FRET, SRC2-2 peptide recruitment). Particulars: for Emax: extent of activation relative to GW4064, read-out: % Efficacy. Background: TR-FRET usually uses a lanthanide donor and a delayed reading to cut background.
Setting [3] is: -log EC50, concentration required to produce 50% activation.

Sequence of human Farnesoid X receptor ligand-binding domain/Gal4 DNA binding domain chimera (Q96RI1 262-486, stated change not applied): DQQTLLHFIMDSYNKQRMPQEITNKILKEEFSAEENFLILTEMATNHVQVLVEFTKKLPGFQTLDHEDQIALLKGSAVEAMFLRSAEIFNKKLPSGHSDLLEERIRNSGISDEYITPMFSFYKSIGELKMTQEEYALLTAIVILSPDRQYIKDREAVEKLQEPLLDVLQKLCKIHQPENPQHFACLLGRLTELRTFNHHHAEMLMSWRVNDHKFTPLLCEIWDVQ
Sequence of human Farnesoid X receptor ligand-binding domain/Gal4 DNA binding domain chimera (P04386 1-147 partner): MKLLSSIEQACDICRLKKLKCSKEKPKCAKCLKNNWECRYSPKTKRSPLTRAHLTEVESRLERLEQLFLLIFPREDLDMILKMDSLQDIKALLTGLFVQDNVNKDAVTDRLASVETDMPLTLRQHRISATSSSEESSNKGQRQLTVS
Sequence of ligand binding domain of human FXR (Q96RI1 262-486): as the sequence (Q96RI1 262-486, stated change not applied) above

For the molecule `CN(CC(=O)O)S(=O)(=O)c1ccc(N2C[C@@H]3C[C@H]2C[C@H]3OCc2c(-c3c(Cl)cccc3Cl)noc2C2CC2)cc1` [Compound I-143, 2-{N-methyl4-[(1S,4S,5R)-5-{[5-cyclopropyl-3-(2,6-dichlorophenyl)-1,2-oxazol-4-yl]methoxy}-2-azabicyclo[2.2.1]heptan-2-yl]benzenesulfonamido}acetic Acid], in assay [1], the Emax stood at 105% and the EC50 is 1 nM. The molecule further gave a pEC50 in assay [2] (setting [3]) of 8. Also, in assay [2], the Emax was determined as 132%.
With `O=C(O)c1ccc(N2C[C@@H]3C[C@H]2C[C@H]3OCc2c(-c3c(Cl)cccc3Cl)noc2C2CC2)c(C2CC2)c1` [Compound I-108, 3-cyclopropyl-4-((1S,4S,5R)-5-((5-cyclopropyl-3-(2,6-dichlorophenyl)isoxazol-4-yl)methoxy)-2-azabicyclo[2.2.1]heptan-2-yl)benzoic acid], the Emax was 101% in assay [1] and 117% in assay [2]. The same molecule had an EC50 in assay [1] of 3.98 nM. The molecule also yielded a pEC50 in assay [2] (setting [3]) of 9.1.
As to `O=C(O)c1cc(F)c2nc(N3C[C@@H]4C[C@H]3C[C@H]4OC(=O)c3c(-c4c(Cl)cccc4Cl)noc3C3(F)CC3)sc2c1` [Compound I-10, 2-[(1S,4S,5R)-5-[3-(2,6-dichlorophenyl)-5-(1-fluorocyclopropyl)-1,2-oxazole-4-carbonyloxy]-2-azabicyclo[2.2.1]heptan-2-yl]-4-fluoro-1,3-benzothiazole-6-carboxylic Acid], the Emax in assay [1] was determined as 111%; in assay [2], 145%. Further, the EC50 in assay [1] is 25.1 nM. This molecule also came in with a pEC50 in assay [2] (setting [3]) of 7.
`O=C(CCc1ccc(N2C[C@@H]3C[C@H]2C[C@H]3OCc2c(-c3c(Cl)cccc3Cl)noc2C2CC2)c(F)c1)OCCN(CCO)CCO` [Compound I-163, 2-[bis(2-hydroxyethyl)amino]ethyl 3-{4-[(1S,4S,5R)-5-{[5-cyclopropyl-3-(2,6-dichlorophenyl)-1,2-oxazol-4-yl]methoxy}-2-azabicyclo[2.2.1]heptan-2-yl]-3-fluorophenyl}propanoate]: the Emax is 99% in assay [1] and 154% in assay [2]. This molecule also showed an EC50 in assay [1] of 1.26 nM. This molecule showed a pEC50 in assay [2] (setting [3]) of 7.5.
The like results for `O=C(O)[C@@H]1CCc2cc(N3C[C@@H]4C[C@H]3C[C@H]4OCc3c(-c4c(Cl)cccc4Cl)noc3C3CC3)ccc2C1` (single isomer, unassigned) [Compound I-137] were, in that order, 106%, 132%, 10 nM and 8.
Turning to `Fc1cc(CCc2nn[nH]n2)ccc1N1C[C@@H]2C[C@H]1C[C@H]2OCc1c(-c2c(Cl)cccc2Cl)noc1C1CC1` [Compound I-162, (1S,4S,5R)-5-{[5-cyclopropyl-3-(2,6-dichlorophenyl)-1,2-oxazol-4-yl]methoxy}-2-{2-fluoro-4-[2-(2H-1,2,3,4-tetrazol-5-yl)ethyl]phenyl}-2-azabicyclo[2.2.1]heptane], in assay [1], the Emax was determined as 105% and the EC50 was 6.31 nM. Besides, the pEC50 in assay [2] (setting [3]) stood at 8.1. Further, in assay [2], the Emax turned out to be 140%.
Consider `O=C(O)Cc1ccc(N2C[C@@H]3C[C@H]2C[C@H]3OCc2c(-c3c(Cl)cccc3Cl)noc2C2CC2)c(F)c1` [Compound I-153, 2-{4-[(1S,4S,5R)-5-{[5-cyclopropyl-3-(2,6-dichlorophenyl)-1,2-oxazol-4-yl]methoxy}-2-azabicyclo[2.2.1]heptan-2-yl]-3-fluorophenyl}acetic Acid], for which, in assay [1], the Emax is 100% and the EC50 is 10 nM. The pEC50 in assay [2] (setting [3]) came to 9.2. Besides, the Emax in assay [2] worked out at 130%.
In the case of `O=C(O)c1cc(F)c2nc(N3C[C@@H]4C[C@H]3C[C@H]4OCc3c(-c4c(Cl)cccc4Cl)noc3C3CC3)sc2c1` [Compound I-12, 2-[(1S,4S,5R)-5-{[5-cyclopropyl-3-(2,6-dichlorophenyl)-1,2-oxazol-4-yl]methoxy}-2-azabicyclo[2.2.1]heptan-2-yl]-4-fluoro-1,3-benzothiazole-6-carboxylic Acid], in assay [1], the Emax amounted to 122% and the EC50 is 0.1 nM. This molecule registered a pEC50 in assay [2] (setting [3]) of 9. In assay [2], the Emax came out at 153%.
For the molecule `CC(C)c1cccc(F)c1-c1noc(C2CC2)c1CO[C@@H]1C[C@@H]2C[C@H]1C(=O)N2c1ccc(C(=O)O)cc1` [Compound I-310, 4-[(1S,4R,5R)-5-({5-cyclopropyl-3-[2-fluoro-6-(propan-2-yl)phenyl]-1,2-oxazol-4-yl}methoxy)-3-oxo-2-azabicyclo[2.2.1]heptan-2-yl]benzoic Acid], the values for the Emax in assay [1] and in assay [2] were 115% and 155%, respectively. In assay [1], this molecule had an EC50 of 7.94 nM. The molecule further came in with a negative logarithm of the EC50 (pEC50) in assay [2] (setting [3]) of 7.6.
The like results for `O=C(O)c1cc([C@H]2CCOC2)c2nc(N3C[C@@H]4C[C@H]3C[C@H]4OCc3c(-c4c(Cl)cccc4Cl)noc3C3CC3)sc2c1` [Compound I-253, 2-[(1S,4S,5R)-5-{[5-cyclopropyl-3-(2,6-dichlorophenyl)-1,2-oxazol-4-yl]methoxy}-2-azabicyclo[2.2.1]heptan-2-yl]-4-[(3R)-oxolan-3-yl]-1,3-benzothiazole-6-carboxylic Acid] were, in that order, 107%, 140%, 0.158 nM and 8.6.
For the molecule `O=C(O)c1cc(C2CCC2)c2nc(N3C(=O)[C@@H]4C[C@H]3C[C@H]4OCc3c(-c4c(Cl)cccc4Cl)noc3C3CC3)sc2c1` [Compound I-296, 4-cyclobutyl-2-((1S,4R,5R)-5-((5-cyclopropyl-3-(2,6-dichlorophenyl)isoxazol-4-yl)methoxy)-3-oxo-2-azabicyclo[2.2.1]heptan-2-yl)benzo[d]thiazole-6-carboxylic acid], the results for the Emax in assay [1] and in assay [2] were 109% and 90%, respectively. For the same molecule, in assay [1], the EC50 was 10 nM. Besides, the pEC50 in assay [2] (setting [3]) was determined as 7.6.
For the molecule `O=C(O)c1cc(C2CC2)c2nc(N3C(=O)[C@@H]4C[C@H]3C[C@H]4OCc3c(-c4c(Cl)cccc4Cl)noc3C3CC3)sc2c1` [Compound I-295, 4-cyclopropyl-2-((1S,4R,5R)-5-((5-cyclopropyl-3-(2,6-dichlorophenyl)isoxazol-4-yl)methoxy)-3-oxo-2-azabicyclo[2.2.1]heptan-2-yl)benzo[d]thiazole-6-carboxylic acid], in assay [1], the Emax came out at 105% and the EC50 is 1 nM. For the same molecule, the pEC50 in assay [2] (setting [3]) was found to be 8.2. The Emax in assay [2] was found to be 98%.
`NS(=O)(=O)[C@@H]1CCC[C@H]1OC(=O)c1ccc(N2C(=O)[C@@H]3C[C@H]2C[C@H]3OCc2c(-c3c(Cl)cccc3Cl)noc2C2CC2)cc1F` [Compound I-347, (1R,2R)-2-sulfamoylcyclopentyl 4-[(1S,4R,5R)-5-{[5-cyclopropyl-3-(2,6-dichlorophenyl)-1,2-oxazol-4-yl]methoxy}-3-oxo-2-azabicyclo[2.2.1]heptan-2-yl]-2-fluorobenzoate]: in assay [1], the Emax was 135% and the EC50 was 1 nM. This molecule registered a pEC50 in assay [2] (setting [3]) of 8.5. Besides, the Emax in assay [2] was 203%.
For the molecule `O=C(NS(=O)(=O)C1CCOCC1)c1ccc(N2C(=O)[C@@H]3C[C@H]2C[C@H]3OCc2c(-c3c(Cl)cccc3Cl)noc2C2CC2)cc1F` [Compound I-332, 4-((1S,4R,5R)-5-((5-cyclopropyl-3-(2,6-dichlorophenyl)isoxazol-4-yl)methoxy)-3-oxo-2-azabicyclo[2.2.1]heptan-2-yl)-2-fluoro-N-((tetrahydro-2H-pyran-4-yl)sulfonyl)benzamide], in assay [1], the Emax turned out to be 100% and the EC50 was 0.316 nM. In assay [2] (setting [3]), this molecule showed a pEC50 of 8.8. Also, the Emax in assay [2] came to 150%.
For `CCCS(=O)(=O)NC(=O)c1cc(F)c2nc(N3C[C@@H]4C[C@H]3C[C@H]4OCc3c(-c4c(Cl)cccc4Cl)noc3C3CC3)sc2c1` [Compound I-29, 2-[(1S,4S,5R)-5-{[5-cyclopropyl-3-(2,6-dichlorophenyl)-1,2-oxazol-4-yl]methoxy}-2-azabicyclo[2.2.1]heptan-2-yl]-4-fluoro-N-(propane-1-sulfonyl)-1,3-benzothiazole-6-carboxamide], the values for the Emax in assay [1] and in assay [2] were 118% and 194%, respectively. The same molecule showed an EC50 in assay [1] of 1.58 nM. This molecule also registered a pEC50 in assay [2] (setting [3]) of 7.8.
Take `CCCS(=O)(=O)NC(=O)c1ccc(N2C[C@@H]3C[C@H]2C[C@H]3OCc2c(-c3c(Cl)cccc3Cl)noc2C2(F)CC2)nc1` [Compound I-208, 6-[(1S,4S,5R)-5-[[3-(2,6-dichlorophenyl)-5-(1 I-fluorocyclopropyl)-1,2-oxazol-4-yl]methoxy]-2-azabicyclo[2.2.1]heptan-2-yl]-N-(propane-1-sulfonyl)pyridine-3-carboxamide]: the Emax was 104% in assay [1] and 166% in assay [2]. Further, the EC50 was 5.01 nM in assay [1] and 10 nM in assay [2] (setting [3]).

Source of the values: patent US10793568B2, “Hormone receptor modulators for treating metabolic conditions and disorders” (ARDELYX, INC., priority 2016, dated 2020).
